Counter-ions that a name gives are not always drawn.
Key:
HCT-116 cells = test: MTT assay; format: cell-based; conditions: Homo sapiens, 24 h, mean ± SEM
Experimental: (§1) For the MTT assay, DU-145, MDA-MB-231, HCT-116, and HUVEC cells (American Type Culture Collection) were seeded at a concentration of 1 × 10^4 cells per well in 96-well plates and allowed to incubate overnight, ensuring proper adherence. Subsequently, a series of concentrations for both AQQ1 and AQQ2 (ranging from 1 to 100 µM) were added to the culture medium with a final concentration of 1% DMSO, and cells were subjected to an additional 24 h incubation period. The control group only received 1% DMSO (Biomatik, Cambridge, ON, Canada). To establish a baseline for comparison, DOXO (Saba, İstanbul, Turkey), a known chemotherapeutic agent, was administered at equivalent concentrations. Following the incubation period, MTT (3-(4,5-dimethylthiazol-2-yl)-2,5-diphenyltetrazolium bromide) (Biomatik, Canada) assay was carried out to assess cell viability. Finally, the absorbance was quantified at 590 nm using a BioTek Epoc plate reader (Biotek, Winooski, VT, USA). The derived data were analysed using GraphPad Prism 8 software to calculate the inhibitory concentration 50 (IC50) values of the test compounds.

[1] = system: Human Umbilical Vein Endothelial Cells (HUVEC); test: MTT assay; format: cell-based; conditions: 24 h, mean ± SEM
Experimental: as §1

MDA-MB-231 cells = test: MTT assay; format: cell-based; conditions: Homo sapiens, 24 h, mean ± SEM
Experimental: as §1

DU-145 cells [2] = test: MTT assay; format: cell-based; conditions: Homo sapiens, 24 h, mean ± SEM
Experimental: as §1

DU-145 cells [3] = test: Cell cycle assay (flow cytometry, PI); format: cell-based, human; conditions: 24 h, highest concentrations
Experimental: Cells were subjected to AQQ1 and DOXO treatments as previously described for apoptosis necrosis analysis. For cell cycle analysis, a cell population of 1 × 10^6 was collected, centrifuged, and the supernatant was removed. The resulting cellular pellet was re-suspended in 70% cold ethanol in PBS. Subsequently, the cells underwent a single PBS wash, followed by incubation in PBS containing […] PI (Sigma-Aldrich, St. Louis, MO, USA) and 2 mg/mL DNase-free RNase-A (Affymetrix, Inc., Santa Barbara, CA, USA) for 30 min at room temperature in a light-protected environment. Analysis was performed using the BD FACS Calibur Flow Cytometry System, and the BD CellQuest Pro Software software (version 5.1, Becton Dickinson, USA) was employed to determine cell cycle phase distributions in comparison to the control group.

Q: What does the source list for `COc1cccc2c1C(=O)c1c(O)c3c(c(O)c1C2=O)C[C@@](O)(C(=O)CO)C[C@@H]3O[C@H]1C[C@H](N)[C@H](O)[C@H](C)O1` [DOXO, Doxorubicin HCl, reference compound]?
A: IC50 (HCT-116 cells): 24.4 ± 6.9 µM; IC50 [1]: 57.5 ± 9.82 µM; IC50 (MDA-MB-231 cells): 59.1 ± 9.06 µM; IC50 (DU-145 cells [2]): < 100 µM; population of cells in the G0/G1 phase (DU-145 cells [3]): showed a similar effect on DU-145 cells
